Laboratory results: patent US12397004B2, “Nasal delivery of low-dose aspirin for the treatment of neurodegenerative and lysosomal storage diseases” (Rush University Medical Center, priority 2018, dated 2025)

Columns and labels:
myelin = experiment: Demyelination in spinal cord of EAE mice (MBP immunostaining, Luxol fast blue); assay type: in vivo, female SJL/J mice; settings: 0.2 and 0.4 mg/kg body wt/d, nebulization from onset of acute phase, MBP and LFB staining
Experimental: FIG. 8A-8C: Nebulization of very low-dose aspirin protects myelin in experimental autoimmune encephalomyelitis (EAE), a mouse model of multiple sclerosis. EAE was induced in female SJL/J mice (4-6 week old) by adoptive transfer of MBP-primed T cells. Mice were treated with 0.2 mg/kg body wt/d and 0.4 mg/kg body wt/d aspirin via nebulization using the Buxco Inhalation Tower from the onset of acute phase. A) Spinal cord sections were immunostained with MBP (red). B) Sections were also stained with Luxol fast blue. Digital images were collected under bright field setting using a 40× objective. Demyelination was represented quantitatively (C). Data are expressed as the mean±SEM of five different mice per group. […]. EAE is an animal model of human demyelinating disease multiple sclerosis (MS). It was determined whether aspirin nebulization decreased demyelination in mice with EAE. To examine demyelination, spinal cord sections were stained with MBP, a major component of myelin. Moreover, spinal cord sections were also stained with luxol fast blue (LFB), which reacts with myelin. As evident from MBP immunostaining (FIG. 8A) and LFB staining (FIG. 8B), there were widespread demyelination zones in the white matter in mice with EAE.

[1] = system: adoptively-transferred EAE; experiment: Adoptive-transfer EAE in female SJL/J mice: clinical symptoms, grip test, rotorod after aspirin nebulization; assay type: in vivo; settings: 0.2 and 0.4 mg/kg body wt/d
Experimental: FIG. 2A-2C. Nebulization of low-dose aspirin reduced clinical symptoms of experimental allergic encephalomyetis (EAE) in female SJL/J mice. 2A) EAE was induced in 4-5 week old female SLJ/mice by adoptive transfer of myelin basic protein (MBP) primed T cells and from 9 days post-transfer (dpt), mice were treated with different doses of aspirin once daily for nebulization. Mice (n=6 per group in two independent experiments) were scored daily. On 16 dpt (acute phase), mice were examined for grip test (2B) and rotorod (2C). Results are presented as mean±SEM of six (6) mice per group. ^ap<0.001 vs control; ^bp<0.001 vs EAE by two-samples t-tests. Oral tablets of baby aspirin with a standard dosage of 81 mg were solubilized in hot double distilled water and cooled to room temperature. This liquid formulation was made fresh every week. In mice, an aspirin dose of 1 mg/kg body wt/d aspirin is equivalent to “Baby Aspirin” (81 mg tablet per adult). A Buxco Inhalation Tower All-In-One Controller by DSI™ was used for air supply for nebulization (FIG. 1A). A whole body chamber was fitted with an Aeroneb® Ultrasonic Nebulizer (FIG. 1B) supplied with air from a Buxco bias flow pump. Mice were allowed to nebulize aspirin at doses of […] mg/kg body wt/d (solubilized in a volume of 100 μl double-distilled water/mouse) for 3 min. Therefore, control group of mice also received 100 μl water by nebulization. Experimental allergic encephalomyelitis (EAE) is an animal model of MS, the most common human demyelinating disease. RR-EAE was induced in female SJL/J mice by adoptive transfer of myelin […] (MBP) primed T cells (FIG. 2A). As expected, induction of EAE reduced grip test (FIG. 2B) and rotorod (FIG. 2C) performances of mice. Mice were then nebulized with aspirin (0.2 and 0.4 mg/kg body wt/d in a volume of 100 μl/mouse) from 9 days post-transfer (dpt) of MBP-primed T cells. The control EAE group were treated with only water via nebulization. A dose of 0.2 mg/kg body wt/d aspirin equates to approximately 16 mg per adult. Clinical symptoms were monitored every day until 38 dpt. […]

FAD5× mouse model of AD [2] = settings: oral, 2 mg/kg body wt/d; cited from earlier work
CD4+IL-17+ T cells = experiment: FACS of lymph node cells of EAE mice for IL-17 and CD4 (Th17 response); assay type: in vivo, female SJL/J mice; settings: 0.2 and 0.4 mg/kg body wt/d, nebulization from 9 dpt, 16 dpt
Experimental: FIG. 4A-4B. Nebulization of low-dose aspirin suppresses the Th17 response in vivo in mice with adoptive transfer EAE. Lymph node cells of control, EAE (16 dpt) and low doses of aspirin-treated EAE mice (16 dpt receiving 0.2 and 0.4 mg/kg body wt/d aspiring in 100 μl water from 9 dpt via nebulization) were analyzed by FACS for IL-17 and CD4 (4A). The MFI of IL-17 in CD4+ population was calculated by using CellQuest software (4B). Data were mean±SEM of four mice per group. ^ap<0.001 vs control; ^bp<0.001 vs EAE by two-samples t-tests. T helper cell 17 (Th17) cells are considered to play a more important role than Th1 cells in the disease process of EAE and MS (El-behi et al., 2010). Since aspirin nebulization enriched Tregs, aspirin nebulization was tested to determine if aspirin nebulization was capable of suppressing Th17 response in vivo in EAE mice. Th17 cells are characterized by expression of IL-17 (Shi et al., 2008). […] However, nebulization of EAE mice with aspirin led to the suppression of the CD4+IL-17+ T cell population in LNC (FIG. 4A). This is also corroborated by mean fluorescence intensity (MFI) analysis of IL-17 within the CD4+ population (FIG. […]).

FAD5× mouse model of AD [3] = experiment: T-maze, context-dependent hippocampal behavior in FAD5× mice; assay type: in vivo; settings: 0.2 and 0.4 mg/kg body wt/d, nebulization, 30 days
Experimental: FIG. 5A-5E. Nebulization of low-dose aspirin protects memory in the FAD5× mouse model of AD. Six to seven-month old FAD5× mice were treated with low doses (0.2 and 0.4 mg/kg body wt/d) of aspirin via nebulization. After 30 days of treatment, hippocampus-dependent spatial behavior was monitored by Barnes maze. 5A) Representative heat maps summarizing the overall activity of mice on the apparatus recorded with a Noldus camera and visualized by Ethovision XT software. 5B) Latency and 5C) number of errors made by all groups of mice. Context-dependent hippocampal behavior was analyzed by T-maze. 5D) Number of positive turns and 5E) number of negative turns of all groups of mice on an appetitive T-maze conditioning task were manually recorded. Results are presented as mean±SEM of 5 mice per group. ^ap<0.001 vs non-Tg; ^bp<0.001 vs FAD5×; ^cp<0.01 vs non-Tg; ^dp<0.05 vs FAD5×. T-maze apparatus monitors context-dependent hippocampal behavior, which may be a better index to test cognition in mice. […] However, similar to that observed with Barnes maze, nebulization of low doses of aspirin improved the performance of FAD5× mice on T maze as evident by increase in positive turns (FIG. 5D) and decrease in negative turns (FIG. 5E).

[4] = system: Aβ immunoreactive plaques; experiment: DAB immunostaining (6E10) of hippocampal sections, plaque load in FAD5× mice; assay type: in vivo; settings: 0.2 and 0.4 mg/kg body wt/d, nebulization, 30 days, 6E10 DAB staining
Experimental: FIG. 7A-7B: Nebulization of very low-dose aspirin lowers cerebral plaque load in an animal model of AD. Six-month old FAD5× transgenic mice were treated with 0.2 mg/kg body wt/d and 0.4 mg/kg body wt/d aspirin via nebulization using the Buxco Inhalation Tower. After 30 days of treatment, A) diaminobenzidine (DAB) staining was performed in hippocampal sections using 6E10 antibody. B) Quantification of number of plaques in the hippocampus relative to nontransgenic. Two sections (two images per section) of each of five mice per group were used in counting. All data are represented as mean±SEM. ^ap<0.001 vs non-Tg; ^bp<0.001 vs. FAD5×. Next, in order to check the amyloid deposition in the brain, hippocampal sections were labeled with 6E10 antibody by diaminobenzidine immunostaining. Parallel to the immunoblot results, there was marked abundance of AP immunoreactive plaques in the hippocampus of Tg mice (FIG. 7A-B).

FAD5× mouse model of AD [5] = experiment: Barnes maze, hippocampus-dependent spatial behavior in FAD5× mice; assay type: in vivo; settings: 0.2 and 0.4 mg/kg body wt/d, nebulization, 30 days
Experimental: FIG. 5A-5E. Nebulization of low-dose aspirin protects memory in the FAD5× mouse model of AD. Six to seven-month old FAD5× mice were treated with low doses (0.2 and 0.4 mg/kg body wt/d) of aspirin via nebulization. After 30 days of treatment, hippocampus-dependent spatial behavior was monitored by Barnes maze. 5A) Representative heat maps summarizing the overall activity of mice on the apparatus recorded with a Noldus camera and visualized by Ethovision XT software. 5B) Latency and 5C) number of errors made by all groups of mice. Context-dependent hippocampal behavior was analyzed by T-maze. 5D) Number of positive turns and 5E) number of negative turns of all groups of mice on an appetitive T-maze conditioning task were manually recorded. Results are presented as mean±SEM of 5 mice per group. ^ap<0.001 vs non-Tg; ^bp<0.001 vs FAD5×; ^cp<0.01 vs non-Tg; ^dp<0.05 vs FAD5×. A Buxco Inhalation Tower All-In-One Controller by DSI™ was used for air supply for nebulization (FIG. 1A). A whole body chamber was fitted with an Aeroneb® Ultrasonic Nebulizer (FIG. 1B) supplied with air from a Buxco bias flow pump. […] Hippocampus-dependent spatial learning and cognitive behavior can be reliably monitored in the Barnes maze test (Roy et al., 2013; Roy et al., 2015).

CD4+Foxp3+ Tregs = experiment: FACS of lymph node cells of EAE mice for Foxp3 and CD4 (Tregs); assay type: in vivo, female SJL/J mice; settings: 0.2 and 0.4 mg/kg body wt/d, nebulization from 9 dpt, 16 dpt
Experimental: FIG. 3A-3B. Nebulization of low-dose aspirin improves regulatory T cells (Tregs) in vivo in mice with adoptive transfer EAE. Lymph node cells of control, EAE (16 dpt) and low doses of aspirin-treated EAE mice (16 dpt receiving 0.2 and 0.4 mg/kg body wt/d aspirin in 100 μl water from 9 dpt via nebulization) were analyzed by fluorescence activated cell sorting (FACS) for Foxp3 and CD4 (3A). The mean fluorescence intensity (MFI) of Foxp3 in CD4+ population was calculated by using CellQuest software (3B). Data were mean±SEM of four mice per group. ^ap<0.001 vs control; ^bp<0.001 vs EAE by two-samples t-tests. Tregs are most important immunomodulatory subtype of T lymphocytes (Sakaguchi, 2005; Sakaguchi and Powrie, 2007) that are known to suppress EAE and MS. Nebulization of aspirin was further investigated to determine whether nebulization was capable of enriching Tregs in vivo in EAE mice. EAE mice receiving aspirin nebulization from 9 dpt were sacrificed on 16 dpt, followed by analysis of Tregs in lymph node cells (LNC). Foxp3 protein is currently considered as the most important marker of Tregs and by dual fluorescence-activated cell sorting (FACS) staining, we found decrease in CD4^+Foxp3^+ Tregs in LNC of EAE mice (FIG. 3A-B). However, nebulization of EAE mice with aspirin at both 0.2 and 0.4 mg/kg body wt/d doses protected CD4+Foxp3+ Tregs (FIG. 3A-B).

Aβ = experiment: Western blot of Aβ in hippocampal extracts of FAD5× mice (6E10 and 82E1 antibodies); assay type: in vivo; settings: 0.2 and 0.4 mg/kg body weight/d, nebulization, 30 days, immunoblot
Experimental: FIG. 6A-6D: Nebulization of very low-dose aspirin lowers cerebral plaque load in an animal model of AD. Six-month old FAD5× transgenic mice were treated with 0.2 mg/kg body wt/d and 0.4 mg/kg body wt/d aspirin via nebulization using the Buxco Inhalation Tower. After 30 days of treatment, Aβ levels were monitored in hippocampal extracts by Western blot analysis (A & C) and densitometric analysis (B & D) using 6E10 (A & B) and 82E1 (C & D) antibodies. Actin was used as loading control. Results are presented as mean±SEM of 4 mice per group. ^ap<0.001 vs non-Tg; ^bp<0.001 vs. FAD5×. To explore whether nebulization of very low-dose aspirin was capable of reducing the amyloid load in the hippocampus, the most affected brain region in AD, of FAD5× (Tg) mice, the following experiment was performed. […] The 82E1 is known to detect both soluble and fibrillar human Aβ to a similar degree.

[6] = nebulization from 9 dpt, tested 16 dpt

## CC(=O)Oc1ccccc1C(=O)O [aspirin, acetylsalicylic acid]
myelin
  loss of myelin in the spinal cord (demyelination): prevented the loss of myelin
[1]; [6]
  grip test activity of EAE mice: significantly improved
  rotorod activity of EAE mice: significantly improved
[1]; nebulization once daily from 9 dpt, monitored until 38 dpt
  clinical manifestations of adoptively-transferred EAE: strongly inhibited
FAD5× mouse model of AD [2]
  memory and learning: protect memory and learning
CD4+IL-17+ T cells
  CD4+IL-17+ T cell population in lymph node cells: suppression
FAD5× mouse model of AD [3]
  T-maze negative turns: decrease
  T-maze positive turns: increase
[4]
  plaque load in the hippocampus: decreasing the plaque load
FAD5× mouse model of AD [5]
  Barnes maze errors: decreased
  Barnes maze latency: significantly improved
CD4+Foxp3+ Tregs
  CD4+Foxp3+ Tregs in lymph node cells: protected
Aβ
  level of Aβ in the hippocampus, 6E10 antibody: significantly reduced
